Laboratory results: ChEMBL document CHEMBL1909046, “DrugMatrix in vitro pharmacology data”
Where a SMILES comes first, the peptide text is derived from it. Bridges are numbered along the chain shown (N, C = ends). [ ]: non-standard residue; d: D form. The star is where a group is joined. Ileψ(thiazoline)Cys = CC[C@H](C)[C@H](N)C1=N[C@H](C(=O)*)CS1; dOrn = NCCC[C@@H](N)C(=O)O

Legend:
Histamine H2 receptor = Histamine H2 receptor (Homo sapiens, UniProt P25021); assay type: cell membranes, CHO-K1, Membrane; details: cho-k1; further: in other assays of this panel Not Active means under 50% inhibition at 10 µM
[1] = target: T1, 3-hydroxy-3-methylglutaryl-coenzyme A reductase (Homo sapiens, UniProt P04035); set-up: species or system Escherichia coli;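 further: enzyme inhibition assay of HMG-CoA reductase using radiolabeled [14C]HMG-CoA as substrate; in other assays of this panel Not Active means under 50% inhibition at 10 µM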
T1 sequence (P04035 whole entry): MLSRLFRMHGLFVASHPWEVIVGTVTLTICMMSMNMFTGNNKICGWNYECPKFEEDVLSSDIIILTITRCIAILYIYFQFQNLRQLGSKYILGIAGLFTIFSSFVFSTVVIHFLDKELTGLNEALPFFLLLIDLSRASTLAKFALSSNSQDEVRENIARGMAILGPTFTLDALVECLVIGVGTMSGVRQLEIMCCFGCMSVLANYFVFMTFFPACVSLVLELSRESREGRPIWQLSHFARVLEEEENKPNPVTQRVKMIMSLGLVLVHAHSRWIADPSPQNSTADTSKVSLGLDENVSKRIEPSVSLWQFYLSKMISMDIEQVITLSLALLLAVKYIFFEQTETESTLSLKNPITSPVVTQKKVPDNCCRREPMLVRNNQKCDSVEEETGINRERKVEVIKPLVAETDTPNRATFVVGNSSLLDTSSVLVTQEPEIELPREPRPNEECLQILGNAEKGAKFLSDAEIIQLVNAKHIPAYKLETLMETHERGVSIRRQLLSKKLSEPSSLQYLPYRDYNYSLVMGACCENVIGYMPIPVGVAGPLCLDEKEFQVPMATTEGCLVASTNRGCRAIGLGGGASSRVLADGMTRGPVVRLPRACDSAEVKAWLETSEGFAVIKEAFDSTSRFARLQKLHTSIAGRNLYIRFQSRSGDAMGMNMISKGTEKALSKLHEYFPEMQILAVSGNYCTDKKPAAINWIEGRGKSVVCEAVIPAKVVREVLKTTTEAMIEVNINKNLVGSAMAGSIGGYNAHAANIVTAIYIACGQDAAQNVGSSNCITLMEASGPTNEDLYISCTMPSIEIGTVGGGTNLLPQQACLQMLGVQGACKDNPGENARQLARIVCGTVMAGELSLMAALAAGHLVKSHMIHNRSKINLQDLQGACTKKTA

[2] = target: T2, Polyunsaturated fatty acid lipoxygenase ALOX15 (Oryctolagus cuniculus, UniProt P12530); test: biochemical; assay type: tissue-based, Reticulocytes; details: reticulocytes;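 further: inhibition of 15-lipoxygenase enzyme activity measured with linoleic acid as the substrate; in other assays of this panel Not Active means under 50% inhibition at 10 µM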
T2 sequence (P12530 whole entry): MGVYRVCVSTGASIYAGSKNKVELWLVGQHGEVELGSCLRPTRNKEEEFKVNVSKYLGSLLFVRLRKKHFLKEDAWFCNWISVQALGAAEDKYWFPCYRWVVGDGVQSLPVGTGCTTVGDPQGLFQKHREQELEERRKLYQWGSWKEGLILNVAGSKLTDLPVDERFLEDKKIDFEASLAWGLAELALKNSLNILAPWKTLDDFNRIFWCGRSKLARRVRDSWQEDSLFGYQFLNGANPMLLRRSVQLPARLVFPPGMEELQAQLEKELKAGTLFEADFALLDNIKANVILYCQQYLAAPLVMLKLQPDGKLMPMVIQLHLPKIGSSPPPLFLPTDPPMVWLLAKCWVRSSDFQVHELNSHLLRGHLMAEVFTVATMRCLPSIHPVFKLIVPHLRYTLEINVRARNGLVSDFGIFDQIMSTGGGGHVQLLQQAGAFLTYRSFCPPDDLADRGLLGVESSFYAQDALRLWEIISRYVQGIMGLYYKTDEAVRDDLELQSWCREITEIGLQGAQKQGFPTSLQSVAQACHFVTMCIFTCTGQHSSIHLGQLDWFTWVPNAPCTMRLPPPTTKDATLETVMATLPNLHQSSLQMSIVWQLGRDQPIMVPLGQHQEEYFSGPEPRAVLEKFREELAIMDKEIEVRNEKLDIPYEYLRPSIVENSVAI

[3] = target: T3, Muscarinic acetylcholine receptor M2 (Homo sapiens, UniProt P08172); assay type: cell membranes, CHO-K1, Membrane; details: cho-k1; further: in other assays of this panel Not Active means under 50% inhibition at 10 µM
T3 sequence (P08172 whole entry): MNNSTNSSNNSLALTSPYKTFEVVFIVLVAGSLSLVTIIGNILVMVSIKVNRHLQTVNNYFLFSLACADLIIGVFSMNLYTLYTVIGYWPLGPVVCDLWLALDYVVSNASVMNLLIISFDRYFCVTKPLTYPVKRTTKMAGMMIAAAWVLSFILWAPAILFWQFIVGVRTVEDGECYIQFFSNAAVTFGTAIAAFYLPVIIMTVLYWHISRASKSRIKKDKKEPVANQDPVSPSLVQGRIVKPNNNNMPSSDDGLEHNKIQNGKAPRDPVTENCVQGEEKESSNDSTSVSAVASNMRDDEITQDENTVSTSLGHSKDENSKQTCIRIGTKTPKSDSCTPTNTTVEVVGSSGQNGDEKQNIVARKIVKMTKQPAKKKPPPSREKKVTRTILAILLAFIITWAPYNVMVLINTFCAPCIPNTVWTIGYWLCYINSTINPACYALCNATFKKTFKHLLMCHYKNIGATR

[4] = target: Delta-type opioid receptor (Homo sapiens, UniProt P41143); assay type: cell membranes, HEK293, Membrane; details: hek293; further: in other assays of this panel Not Active means under 50% inhibition at 10 µM
[5] = target: cGMP-specific 3',5'-cyclic phosphodiesterase (Homo sapiens, UniProt O76074); test: DRUGMATRIX: Phosphodiesterase PDE5 enzyme inhibition (substrate: [3H]cGMP + cGMP); assay type: tissue-based, Platelet; details: platelet; Not Active = under 50% inhibition at 10 µM
Progesterone receptor = target: T4, Progesterone receptor (Bos taurus, UniProt Q690N0); test: DRUGMATRIX: Progesterone radioligand binding (ligand: [3H] R-5020); assay type: tissue-based, Uterus; details: Not Active = under 50% inhibition at 10 µM
T4 sequence (Q690N0 whole entry): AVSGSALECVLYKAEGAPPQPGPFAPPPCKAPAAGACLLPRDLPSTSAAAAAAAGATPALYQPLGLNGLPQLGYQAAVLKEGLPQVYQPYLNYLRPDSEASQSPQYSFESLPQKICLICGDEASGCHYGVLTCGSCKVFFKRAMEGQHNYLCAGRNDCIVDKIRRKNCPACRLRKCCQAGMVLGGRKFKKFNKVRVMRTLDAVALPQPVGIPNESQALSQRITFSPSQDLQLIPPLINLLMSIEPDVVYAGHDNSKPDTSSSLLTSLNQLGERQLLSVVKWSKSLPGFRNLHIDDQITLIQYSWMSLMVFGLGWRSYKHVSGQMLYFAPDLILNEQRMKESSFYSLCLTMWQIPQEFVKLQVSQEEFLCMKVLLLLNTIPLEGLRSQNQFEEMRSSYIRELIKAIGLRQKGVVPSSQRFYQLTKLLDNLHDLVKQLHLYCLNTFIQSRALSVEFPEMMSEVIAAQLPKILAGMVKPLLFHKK

Sequence of Histamine H2 receptor (P25021 whole entry): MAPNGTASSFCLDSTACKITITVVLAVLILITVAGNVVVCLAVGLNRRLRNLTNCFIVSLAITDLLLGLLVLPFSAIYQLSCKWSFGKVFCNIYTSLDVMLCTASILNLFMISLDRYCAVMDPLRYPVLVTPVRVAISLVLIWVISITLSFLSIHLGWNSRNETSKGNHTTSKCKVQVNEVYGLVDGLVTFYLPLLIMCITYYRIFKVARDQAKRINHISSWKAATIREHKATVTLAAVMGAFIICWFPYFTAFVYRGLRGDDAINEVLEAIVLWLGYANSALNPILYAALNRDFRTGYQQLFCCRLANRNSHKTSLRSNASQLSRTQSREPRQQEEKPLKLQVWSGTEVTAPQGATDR
Sequence of Delta-type opioid receptor (P41143 whole entry): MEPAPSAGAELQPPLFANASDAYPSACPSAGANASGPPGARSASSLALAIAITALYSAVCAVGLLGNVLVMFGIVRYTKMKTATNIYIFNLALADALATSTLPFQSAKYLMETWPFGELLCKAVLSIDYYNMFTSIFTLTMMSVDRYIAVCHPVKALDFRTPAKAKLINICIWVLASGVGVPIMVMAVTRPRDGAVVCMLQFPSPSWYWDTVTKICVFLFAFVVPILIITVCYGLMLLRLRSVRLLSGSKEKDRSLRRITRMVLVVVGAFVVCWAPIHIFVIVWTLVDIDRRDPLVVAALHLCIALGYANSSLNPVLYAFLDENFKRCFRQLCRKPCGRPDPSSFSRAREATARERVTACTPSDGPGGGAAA

Row | Structure (SMILES) | IC50 (Histamine H2 receptor) | IC50 [1] | IC50 [2] | IC50 [3] | IC50 [4] | IC50 [5] | IC50 (Progesterone receptor) | IC50 ([1]; read-out: IC50) [nM] | IC50 (Progesterone receptor; read-out: IC50) [nM] | Ki (Progesterone receptor; read-out: Ki) [nM]
1 | C=C1[C@@H]2CCC3[C@@](CC[C@@H]4[C@H](C(=O)O)C[C@@H](O[C@@H]5O[C@H](CO)[C@@H](OS(=O)(=O)[O-])[C@H](OS(=O)(=O)[O-])[C@H]5OC(=O)CC(C)C)C[C@@]34C)(C2)[C@@H]1O.[K+].[K+] (stereo partly drawn) [ATRACTYLOSIDE] | Not Active | Not Active | Not Active | Not Active | Not Active | Not Active | Not Active |  |  | 
2 | Cn1cnc([N+](=O)[O-])c1Sc1ncnc2nc[nH]c12 [AZATHIOPRINE] | Not Active | Not Active | Not Active | Not Active | Not Active | Not Active | Not Active |  |  | 
3 | CC1(C)S[C@@H]2[C@H](NC(=O)[C@H](NC(=O)N3CCNC3=O)c3ccccc3)C(=O)N2[C@H]1C(=O)O [AZLOCILLIN] | Not Active | Not Active | Not Active | Not Active | Not Active | Not Active | Not Active |  |  | 
4 | CC[C@H](C)[C@H](N)C1=N[C@H](C(=O)N[C@@H](CC(C)C)C(=O)N[C@H](CCC(=O)O)C(=O)N[C@H](C(=O)N[C@H]2CCCCNC(=O)[C@H](CC(N)=O)NC(=O)[C@@H](CC(=O)O)NC(=O)[C@H](Cc3cnc[nH]3)NC(=O)[C@@H](Cc3ccccc3)NC(=O)[C@H]([C@@H](C)CC)NC(=O)[C@@H](CCCN)NC2=O)[C@@H](C)CC)CS1 [BACITRACIN] ({Ileψ(thiazoline)Cys}-L[dE]IK[dOrn]I[dF]H[dD]N; lactam 4-C) | Not Active | Not Active | Not Active | Not Active | Not Active | Not Active | Not Active |  |  | 
5 | CCOC(=O)c1ccc(N)cc1 [BENZOCAINE] | Not Active | Not Active | Not Active | Not Active | Not Active | Not Active | Not Active |  |  | 
6 | OCc1ccccc1 [BENZYL ALCOHOL] | Not Active | Not Active | Not Active | Not Active | Not Active | Not Active | Not Active |  |  | 
7 | CC(C)(Oc1ccc(CCNC(=O)c2ccc(Cl)cc2)cc1)C(=O)O [BEZAFIBRATE] | Not Active | Not Active | Not Active | Not Active | Not Active | Not Active | Not Active |  |  | 
8 | CCCC[C@@H](CC)COC(=O)c1ccccc1C(=O)OC[C@@H](CC)CCCC [BIS(2-ETHYLHEXYL)PHTHALATE] | Not Active | Not Active | Not Active | Not Active | Not Active | Not Active | Not Active |  |  | 
9 | Oc1c(Cl)cc(Cl)cc1Sc1cc(Cl)cc(Cl)c1O [BITHIONOL] | Not Active | Not Active | Not Active | Not Active | Not Active | Not Active | Not Active |  |  | 
10 | Brc1ccccc1 [BROMOBENZENE] | Not Active | Not Active | Not Active | Not Active | Not Active | Not Active | Not Active |  |  | 
11 | CCCCOC(=O)c1ccc(N)cc1 [BUTAMBEN] | Not Active | Not Active | Not Active | Not Active | Not Active | Not Active | Not Active |  |  | 
12 | CC[C@@]1(O)C(=O)OCc2c1cc1n(c2=O)Cc2cc3ccccc3nc2-1 [CAMPTOTHECIN] | Not Active | Not Active | Not Active | Not Active | Not Active | Not Active | Not Active |  |  | 
13 | COCc1c(C(C)C)nc(C(C)C)c(/C=C/[C@@H](O)C[C@@H](O)CC(=O)O)c1-c1ccc(F)cc1 [CERIVASTATIN] | Not Active |  | Not Active | Not Active | Not Active | Not Active | Not Active | 0.085 |  | 
14 | CC(=O)O[C@]1(C(C)=O)CC[C@H]2[C@@H]3C=C(Cl)C4=CC(=O)CC[C@]4(C)[C@H]3CC[C@@]21C [CHLORMADINONE ACETATE] | Not Active | Not Active | Not Active | Not Active | Not Active | Not Active |  |  | 5.26 | 0.687
15 | O=C1CCc2cc(OCCCCc3nnnn3C3CCCCC3)ccc2N1 [CILOSTAZOL] | Not Active | Not Active | Not Active | Not Active | Not Active | Not Active | Not Active |  |  | 
16 | O=C(O)c1cn(C2CC2)c2cc(N3CCNCC3)c(F)cc2c1=O [CIPROFLOXACIN] | Not Active | Not Active | Not Active | Not Active | Not Active | Not Active | Not Active |  |  | 
